Measured values published in patent US20240009205A1, “THERAPEUTIC COMBINATION FOR THE TREATMENT OF BREAST CANCER” (IFOM - FONDAZIONE ISTITUTO FIRC DI ONCOLOGIA MOLECOLARE, priority 2020, published 2024).
Like-named read-outs stand apart in the source and are kept apart here. One block for each molecule: values may come before it.

Key:
[1] = tested on: EGR1, PTEN and 4E-BP1 levels in MCF7 cells; assay: immunoblotting of EGR1, PTEN and 4E-BP1 in MCF7; assay type: cell-based, human; conditions: supplementation
Description: For protein lysate generation from cultured cells, 5×10^4 MCF7, T47D or ZR-75-1 cells were plated in 6-well plates in CTR medium. After 24 h medium was removed, cells were washed with PBS and incubated either in CTR or STS medium. […] Where indicated, cells were supplemented with insulin ([…]), IGF1 (5 ng/ml), leptin ([…]), or 17β-estradiol (100 nM). 24 h later, cells were washed and protein lysates were generated as described elsewhere^34,35. Protein lysates from primary tumors or mouse uteri were obtained using TissueRuptor (Quiagen). Proteins (35 μg) were separated by SDS-PAGE, transferred to a PVDF membrane (Immobilon-P, Millipore S.p.A.), and detected with the following antibodies: anti-phospho-AKT (Ser473; #4058), anti-AKT (#9272), anti-PTEN (#9552), anti-phospho-p70S6kinase (Thr389; #9206), anti-p70S6kinase (#9202), anti-4E-BP1 (#4923), anti-phospho-eIF4E ([…]; #9741), anti-phospho-RB (Ser807/811; #9308), anti-RB (#9309), anti-CCND1 (#2978) were all from Cell Signaling Technology; anti-phospho-AMPK (Thr172; PA5-2 17831), anti-AMPK (PA5-29679), anti-EGR1 (MA5-15008) were from Thermo Fisher; anti-β-actin was from Santa Cruz Biotechnology. Band intensities were quantified by Quantity One SW software (Bio-Rad Laboratories, Inc.) using standard enhanced chemiluminescence.

[2] = tested on: HR+/HER2− BC cell lines; conditions: cited from earlier work
[3] = tested on: ER transcriptional activity; assay: ER luciferase reporter assay and ER target gene expression; assay type: cell-based, human; conditions: HR+ BC cell lines, TFF1, PGR, GREB1 expression
[4] = tested on: MCF7 cells; assay: cell viability assay, control and EGR1-silenced MCF7; assay type: cell-based, human
[5] = tested on: MCF7 cells; assay: gene expression microarrays and GSEA in MCF7; assay type: cell-based, human; conditions: 5 μM TMX combined with STS
[6] = tested on: metastases-derived organoids from patients with HR+ BC; assay: organoid viability assay; assay type: cell-based, human; conditions: TMX with STS medium

Molecule: C[C@]12CC[C@@H]3c4ccc(O)cc4CC[C@H]3[C@@H]1CC[C@@H]2O [17β-estradiol]
increase in EGR1, PTEN and 4E-BP1 induced by the TMX-STS combination [1]: prevented the increase in EGR1, PTEN and 4E-PBP1

ER inhibition under STS [3]: enhanced
Molecule: C[C@]12CC[C@@H]3c4ccc(O)cc4C[C@@H](CCCCCCCCC[S+]([O-])CCCC(F)(F)C(F)(F)F)[C@H]3[C@@H]1CC[C@@H]2O (stereo partly drawn) [FULV, fulvestrant]
antitumor activity under STS (low-serum, low-glucose) [2]: increased the antitumor activity

Molecule: CC(C)NC[C@@H](C(=O)N1CCN(c2ncnc3c2[C@H](C)C[C@H]3O)CC1)c1ccc(Cl)cc1 [GDC0068]
protection of EGR1-silenced BC cells from combined ET and STS ([4]; GDC0068 1 μM, AZD5363 400 nM, LY294002 2 μM): abolished such protection

ER inhibition under STS [3]: enhanced
Molecule: CC/C(=C(\c1ccccc1)c1ccc(OCCN(C)C)cc1)c1ccccc1 [TMX, tamoxifen]
cell cycle-related gene categories (GSEA) [5]: downregulation
antitumor activity under STS (low-serum, low-glucose) [2]: increased the antitumor activity
antitumor activity under STS [6]: increased the antitumor activity

Molecule: AZD5363
protection of EGR1-silenced BC cells from combined ET and STS [4]: abolished such protection
